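Interpolation was linear, between the two tested concentrations surrounding the appropriate level; five concentrations were tested over 48 hours in 96-well plates. GI50 is the concentration that inhibits growth by half. The concentration for full growth arrest is given as TGI.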
Experiments:
Assay in all cases: NCI anticancer screen, dose series, 48 h
TK-10 renal = tested on: TK-10 renal
NCI-H522 lung = tested on: NCI-H522 lung
SF-295 CNS = tested on: SF-295 CNS
UO-31 renal = tested on: UO-31 renal
RPMI-8226 leukemia = tested on: RPMI-8226 leukemia
HT29 colon = tested on: HT29 colon
NCI-H23 lung = tested on: NCI-H23 lung
OVCAR-8 ovarian = tested on: OVCAR-8 ovarian
IGROV1 ovarian = tested on: IGROV1 ovarian
UACC-257 melanoma = tested on: UACC-257 melanoma
HOP-92 NSCLC = tested on: HOP-92 NSCLC
SK-MEL-5 melanoma = tested on: SK-MEL-5 melanoma
ACHN renal = tested on: ACHN renal
KM12 colon = tested on: KM12 colon
EKVX NSCLC = tested on: EKVX NSCLC
SK-OV-3 ovarian = tested on: SK-OV-3 ovarian
UACC-62 melanoma = tested on: UACC-62 melanoma
SF-539 CNS = tested on: SF-539 CNS
MOLT-4 leukemia = tested on: MOLT-4 leukemia
MDA-MB-435 = tested on: MDA-MB-435
U251 CNS = tested on: U251 CNS
OVCAR-4 ovarian = tested on: OVCAR-4 ovarian
OVCAR-5 ovarian = tested on: OVCAR-5 ovarian
M14 melanoma = tested on: M14 melanoma
MALME-3M melanoma = tested on: MALME-3M melanoma
SR leukemia = tested on: SR leukemia
A549 NSCLC = tested on: A549 NSCLC

C=C1C(O)C2C(=C(CC)C13CC3)C(=O)C(C)(C)C2OC (centres undefined)
GI50 (TK-10 renal): > 100 µM | TGI (TK-10 renal): > 100 µM | GI50 (NCI-H522 lung): 37.6 µM | TGI (NCI-H522 lung): > 100 µM | GI50 (SF-295 CNS): > 100 µM | TGI (SF-295 CNS): > 100 µM | GI50 (UO-31 renal): 81.5 µM | TGI (UO-31 renal): > 100 µM | GI50 (RPMI-8226 leukemia): 20.6 µM | TGI (RPMI-8226 leukemia): 68 µM | GI50 (HT29 colon): > 100 µM | TGI (HT29 colon): > 100 µM | GI50 (NCI-H23 lung): 55.6 µM | TGI (NCI-H23 lung): > 100 µM | GI50 (OVCAR-8 ovarian): 53.1 µM | TGI (OVCAR-8 ovarian): > 100 µM | GI50 (IGROV1 ovarian): 23.8 µM | TGI (IGROV1 ovarian): > 100 µM | GI50 (UACC-257 melanoma): 35.6 µM | TGI (UACC-257 melanoma): > 100 µM | GI50 (HOP-92 NSCLC): 48.4 µM | TGI (HOP-92 NSCLC): > 100 µM | GI50 (SK-MEL-5 melanoma): 42.6 µM | TGI (SK-MEL-5 melanoma): > 100 µM | GI50 (ACHN renal): 67.8 µM | TGI (ACHN renal): > 100 µM | GI50 (KM12 colon): 60.9 µM | TGI (KM12 colon): > 100 µM | GI50 (EKVX NSCLC): 82.6 µM | TGI (EKVX NSCLC): > 100 µM | GI50 (SK-OV-3 ovarian): > 100 µM | TGI (SK-OV-3 ovarian): > 100 µM | GI50 (UACC-62 melanoma): 84.9 µM | TGI (UACC-62 melanoma): > 100 µM | GI50 (SF-539 CNS): 54.4 µM | TGI (SF-539 CNS): > 100 µM | GI50 (MOLT-4 leukemia): 27.3 µM | TGI (MOLT-4 leukemia): > 100 µM | GI50 (MDA-MB-435): > 100 µM | TGI (MDA-MB-435): > 100 µM | GI50 (U251 CNS): 48.4 µM | TGI (U251 CNS): > 100 µM | GI50 (OVCAR-4 ovarian): > 100 µM | TGI (OVCAR-4 ovarian): > 100 µM | GI50 (OVCAR-5 ovarian): > 100 µM | TGI (OVCAR-5 ovarian): > 100 µM | GI50 (M14 melanoma): 59.4 µM | TGI (M14 melanoma): > 100 µM | GI50 (MALME-3M melanoma): > 100 µM | TGI (MALME-3M melanoma): > 100 µM | GI50 (SR leukemia): 23.5 µM | TGI (SR leukemia): 68 µM | GI50 (A549 NSCLC): 44.9 µM | TGI (A549 NSCLC): > 100 µM

— PubChem BioAssay (NCI)
